Where two headings read alike, the source gives them in different places. Positions of bridges follow the written chain, without caps; N, C: chain ends. Residues, ends and D or L forms follow the SMILES beside them.
Assays:
Experiment in all cases: biochemical
[1] = target: T1, Matriptase (catalytic domain only) (Homo sapiens, UniProt Q9Y5Y6)
T1 construct: matriptase (catalytic domain only, >90% purity by SDS-PAGE); purchased R&D
T1 sequence (Q9Y5Y6 615-854 limits assumed): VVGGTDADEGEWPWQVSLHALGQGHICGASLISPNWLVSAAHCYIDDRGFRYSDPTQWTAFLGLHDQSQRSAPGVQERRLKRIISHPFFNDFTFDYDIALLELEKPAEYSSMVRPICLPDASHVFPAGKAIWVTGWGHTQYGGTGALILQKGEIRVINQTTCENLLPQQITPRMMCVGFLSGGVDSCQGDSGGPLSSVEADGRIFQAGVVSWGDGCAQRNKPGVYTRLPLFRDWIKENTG
Method: (§1) All assays were performed on 96-well microplates and the change in relative fluorescence unit (RFU) was measured by fluorescence spectrometer (BMG FLUOstar OPTIMA). The excitation/emission wavelength was 360/460 nm for the substrate Boc-VPR-AMC (Bachem AG, Hauptstrasse, Switzerland) and MeOSuc-AAPV-AMC (Bachem AG, Hauptstrasse, Switzerland) and 485/520 nm for BODIPY_FL casein (Invitrogen, Carlsbad, US). Stock solution of Boc-VPR-AMC was prepared by dissolving the solid in dimethyl sulfoxide to 100 mM and 10 mM for MeOSuc-AAPV. For BODIPY_FL casein, it was reconstituted to 1 mg/mL in 1xPBS. […] The % of inhibition was calculated by the following equation: % of Inhibition=(1−(Sample RFU − Min RFU)/(Max RFU − Min RFU)) X100
(§2) Each inhibition curves were done in triplicates with a minimum of five concentration points fitted. Fitting of each curve was done using SigmaPlot with the Four Parameter Logistic Function and the IC50 calculated. […] All tested compounds were reconstituted to stock solution in water.
(§3) The diluent for all the tested compounds, protein and substrate (except KLK7, which was done with 10 mM Tris pH 7.8) was 1xPBS pH 8.0–8.9. The serially diluted ligands were mixed with diluted bovine trypsin (Sigma, Dorset, U.K.) or activated KLK14, or KLK5, or activated KLK8 or matriptase (catalytic domain only, >90% purity by SDS-PAGE, endotoxin <0.1 ng/μg, R&D, Minneapolis, U.S.) or activated KLK7 or human neutrophil elastase (purified from human plasma, >95% purity by SDS-PAGE, Abcam, Cambridge, U.K.) or porcine pancreatic elastase 1 (Sigma, Dorset, U.K.) or human plasma kallikrein or human plasma plasmin (purified from human plasma, ≥95% purity by SDS-PAGE, BioVision, Milpitas, U.S.). 20μL of the ligand-protein mixture was pipetted to a well of a 96-well microplate in triplicates. The reaction was started by addition of 90–100 μL of the diluted substrate solution (contained 0.05% v/v Brij35) and the plate incubated at 25°C but 37°C for KLK7. RFU reading for each well was taken 6 minutes (trypsin) or 15 minutes (KLK14, KLK5, KLK8, matriptase, human neutrophil elastase, porcine pancreatic elastase 1, plasma kallikrein and plasmin) or 20 hours (KLK7) after substrate addition.

KLK7 = target: T2, KLK7 (Homo sapiens, UniProt P49862); conditions: for inhibition at 11 µM: read-out: % inhibition of KLK7
T2 construct: purchased R&D
Method: as §1, §2
(§4) Recombinant KLK7, KLK8 and KLK14 (>95% purity by SDS-PAGE, endotoxin <0.1 ng/μg, R&D, Minneapolis, U.S.) stocks were diluted with 1xPBS to a concentration of 120 nM. KLK7 and KLK14 were activated by addition of 1 mM f/c CaCl2 (Sigma, Dorset, U.K.), 0.05% v/v Brij35 (Sigma, Dorset, U.K.), 20 nM f/c thermolysin (Sigma, Dorset, U.K.) and incubated at 37°C for 1 hour. The reaction was stopped by addition of ethylenediaminetetraacetic acid (EDTA, 50 mM f/c). KLK8 was activated by addition of 11 nM f/c lysyl endopeptidase (Santa Cruz Biotechnology, Dallas, U.S.) and incubation at 37°C for 0.5 hour. […] The RFU value reached by the thermolysin control was used as the minimum RFU for calculating the % of inhibition for KLK7.
as §3

KLK8 = target: T3, KLK8 (Homo sapiens, UniProt O60259)
T3 construct: purchased R&D
T3 sequence (O60259 33-260): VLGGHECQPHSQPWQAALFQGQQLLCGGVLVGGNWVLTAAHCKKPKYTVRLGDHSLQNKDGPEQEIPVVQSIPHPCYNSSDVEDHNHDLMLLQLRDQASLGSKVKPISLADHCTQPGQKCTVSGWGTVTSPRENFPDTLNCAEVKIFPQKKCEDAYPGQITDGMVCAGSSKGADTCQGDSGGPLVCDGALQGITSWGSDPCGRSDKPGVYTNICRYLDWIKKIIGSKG
Method: as §1, §2, §4, §3

KLK5 = target: T4, KLK5 (Homo sapiens, UniProt Q9Y337); format: binding; conditions: for Stoichiometry (N) / ΔH / ΔS / ΔG / Ka: ITC; for ΔG: 25°C; for Ka: 25°C (Table S2, unit not given)
T4 construct: purchased Novoprotein
T4 sequence (Q9Y337 23-293): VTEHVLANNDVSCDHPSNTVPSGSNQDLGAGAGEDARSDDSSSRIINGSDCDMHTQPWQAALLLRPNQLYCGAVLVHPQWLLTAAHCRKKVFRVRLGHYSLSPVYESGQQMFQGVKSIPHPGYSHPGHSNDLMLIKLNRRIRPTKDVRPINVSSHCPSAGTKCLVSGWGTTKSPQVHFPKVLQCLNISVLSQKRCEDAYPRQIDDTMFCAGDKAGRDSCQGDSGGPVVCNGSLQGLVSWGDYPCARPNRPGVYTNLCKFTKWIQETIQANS
Method: ITC experiments were performed on a MicroCal iTC200 calorimeter (GE Healthcare, Uppsala, Sweden) at 298.15 K with a stirring speed of 750 revolutions per minute. Concentrated (450 μM) ligand solutions were injected into protein (KLK5) solution (20 μM, 280 μL sample volume) in the sample cell. Injection volumes were 2 μL for I10H and Analogue 1 and 1 μL for Analogue 2 and 6 with a spacing of 120 seconds between each injection. Concentrations of ligands were determined by dried weight and they were reconstituted to 10 mM stock in H2O. Concentration of KLK5 was determined by UV280 calculated with an extinction coefficient of 38680 and molecular weight of 32KDa (including weight of glycosylation). The protein solution were buffer exchanged using spin column to 1xPBS (137 mM NaCl, 2.7 mM KCl, 4.3 mM Na2HPO4, 1.47 mM KH2PO4 pH 8.0) or 20 mM MES buffer (with 150 mM NaCl, pH 5.5). Ligand stocks were diluted in those buffers (4.5 μL + 95.5 μL buffer), and then equal v/v % of H2O was added to the protein solution after buffer exchange to ensure matching buffer contents. Heat of dilution was undetectable in control experiments. Data were analyzed using OriginLab version 7.0.

[2] = at 11 μM, enzyme 10 nM, BODIPY_FL casein 6.5 μg/mL, 37°C, 20 hours
[3] = enzyme 9 nM, Boc-VPR-AMC 42 μM, 25°C, 15 minutes

T2 sequence (P49862 30-253): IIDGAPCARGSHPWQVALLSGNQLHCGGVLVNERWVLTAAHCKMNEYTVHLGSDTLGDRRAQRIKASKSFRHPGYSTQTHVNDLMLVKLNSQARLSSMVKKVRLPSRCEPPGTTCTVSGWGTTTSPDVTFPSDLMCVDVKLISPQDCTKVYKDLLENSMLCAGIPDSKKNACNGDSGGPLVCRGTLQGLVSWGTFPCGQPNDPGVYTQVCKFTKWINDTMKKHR

Row | Structure (SMILES) | IC50 [1] [nM] | inhibition at 11 µM (KLK7) [%] | IC50 (KLK8) [nM] | Kd (KLK5) [nM] | Stoichiometry (N) (KLK5; 1xPBS pH 8.0, 25°C) | ΔH (KLK5; 1xPBS pH 8.0, 25°C) [kcal/mol] | ΔS (KLK5; 1xPBS pH 8.0, 25°C) [cal mol^-1 kelvin^-1] | ΔG (KLK5) [kcal/mol] | Ka (KLK5) | IC50 (KLK7) [nM] | increase in binding affinity for KLK5 from I10H (KLK5; ITC Kd) | IC50 ([1]; enzyme 10 nM, Boc-VPR-AMC 21 μM, 25°C, 15 minutes) [nM] | inhibition at 11 µM (KLK7; [2]) [%] | IC50 (KLK8; [3]) [nM] | Kd (KLK5; 1xPBS pH 8.0, 25°C, read-out: ITC Kd) [nM]
1 | CC[C@H](C)[C@@H]1NC(=O)[C@H](CO)NC(=O)[C@H](CCCCN)NC(=O)[C@H]([C@@H](C)O)NC(=O)[C@@H]2CSSC[C@H](NC(=O)[C@H](Cc3c[nH]cn3)NC(=O)[C@@H]3CCCN3C(=O)[C@@H]3CCCN3C1=O)C(=O)N[C@@H](Cc1c[nH]c3ccccc13)C(=O)N1CCC[C@H]1C(=O)N[C@@H](CC(=O)O)C(=O)NCC(=O)N[C@@H](CCCNC(=N)N)C(=O)N2 [Analogue 2] (cyclo(CTKSIPPHCWPDGR); disulfide 1-9) | 206 ± 10 | 28 | 563 ± 14 | 96 | 1.01±0.01 | 4.196 ± 0.065 | 46.2 | -9.579 | 1.0E7±1.8E6 |  |  |  |  |  | 
2 | CC[C@H](C)[C@@H]1NC(=O)[C@H](CO)NC(=O)[C@H](CCCNC(=N)N)NC(=O)[C@H]([C@@H](C)O)NC(=O)[C@@H]2CSSC[C@H](NC(=O)[C@H](Cc3c[nH]cn3)NC(=O)[C@@H]3CCCN3C(=O)[C@@H]3CCCN3C1=O)C(=O)N[C@@H](Cc1c[nH]c3ccccc13)C(=O)N1CCC[C@H]1C(=O)N[C@@H](CC(=O)O)C(=O)NCC(=O)N[C@@H](CCCNC(=N)N)C(=O)N2 [Analogue 6] (cyclo(CTRSIPPHCWPDGR); disulfide 1-9) | 381 ± 12 |  | 373 ± 31 | 20 | 1.01±0.01 | 2.014 ± 0.017 | 42.0 | -10.51 | 5.0E7±1.2E7 | 534 ± 29 | around 25 times |  |  |  | 
3 | CC[C@H](C)[C@@H]1NC(=O)[C@H](CO)NC(=O)[C@H](CCCCN)NC(=O)[C@H]([C@@H](C)O)NC(=O)[C@@H]2CSSC[C@H](NC(=O)[C@H](Cc3c[nH]cn3)NC(=O)[C@@H]3CCCN3C(=O)[C@@H]3CCCN3C1=O)C(=O)N[C@@H](Cc1ccccc1)C(=O)N1CCC[C@H]1C(=O)N[C@@H](CC(=O)O)C(=O)NCC(=O)N[C@@H](CCCNC(=N)N)C(=O)N2 [Analogue I10H] (cyclo(CFPDGRCTKSIPPH); disulfide 1-7) |  |  |  |  | 1.06±0.02 | 1.963 ± 0.051 | 35.5 | -8.621 | 2.1E6±5.6E5 |  |  | 2240 ± 567 | 0 | 1680 ± 51 | 485
4 | CC[C@H](C)[C@@H]1NC(=O)[C@@H]2CCCN2C(=O)[C@@H]2CCCN2C(=O)[C@H]([C@@H](C)CC)NC(=O)[C@H](CO)NC(=O)[C@H](CCCCN)NC(=O)[C@H]([C@@H](C)O)NC(=O)[C@@H]2CSSC[C@H](NC1=O)C(=O)N[C@@H](Cc1ccccc1)C(=O)N1CCC[C@H]1C(=O)N[C@@H](CC(=O)O)C(=O)NCC(=O)N[C@@H](CCCNC(=N)N)C(=O)N2 [Native SFTI, Sunflower Trypsin Inhibitor 1, reference compound] | 1250 ± 57 |  |  |  |  |  |  |  |  |  |  |  | 18 | 1290 ± 251 | 
